From PubChem BioAssay (NCI)
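Values below derive from 48-hour exposures of cells grown in 96-well plates, with endpoints linearly interpolated between the two concentrations bracketing the appropriate inhibition level. At the GI50, growth is halved. TGI is the concentration that stops growth completely.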

Experiments:
Assay in all cases: growth of human tumour cells (NCI), 48 h
786-0 renal = system: 786-0 renal
A498 renal = system: A498 renal
A549 NSCLC = system: A549 NSCLC
ACHN renal = system: ACHN renal
BT-549 breast = system: BT-549 breast
CAKI-1 renal = system: CAKI-1 renal
COLO 205 colon = system: COLO 205 colon
DU-145 prostate = system: DU-145 prostate
EKVX NSCLC = system: EKVX NSCLC
HCC-2998 colon = system: HCC-2998 colon
HCT-116 colon = system: HCT-116 colon
HCT-15 colon = system: HCT-15 colon
HOP-62 NSCLC = system: HOP-62 NSCLC
HOP-92 NSCLC = system: HOP-92 NSCLC
HS 578T breast = system: HS 578T breast
HT29 colon = system: HT29 colon
IGROV1 ovarian = system: IGROV1 ovarian
KM12 colon = system: KM12 colon
LOX IMVI melanoma = system: LOX IMVI melanoma
M14 melanoma = system: M14 melanoma
MALME-3M melanoma = system: MALME-3M melanoma
MCF7 breast = system: MCF7 breast
MDA-MB-231 breast = system: MDA-MB-231 breast
MDA-MB-435 = system: MDA-MB-435
NCI-H226 lung = system: NCI-H226 lung
NCI-H23 lung = system: NCI-H23 lung
NCI-H460 lung = system: NCI-H460 lung
NCI-H522 lung = system: NCI-H522 lung
NCI/ADR-RES ovarian = system: NCI/ADR-RES ovarian
OVCAR-3 ovarian = system: OVCAR-3 ovarian
OVCAR-4 ovarian = system: OVCAR-4 ovarian
OVCAR-5 ovarian = system: OVCAR-5 ovarian
OVCAR-8 ovarian = system: OVCAR-8 ovarian
PC-3 prostate = system: PC-3 prostate
RPMI-8226 leukemia = system: RPMI-8226 leukemia
RXF 393 renal = system: RXF 393 renal
SF-268 CNS = system: SF-268 CNS
SF-295 CNS = system: SF-295 CNS
SF-539 CNS = system: SF-539 CNS
SK-MEL-2 melanoma = system: SK-MEL-2 melanoma
SK-MEL-28 melanoma = system: SK-MEL-28 melanoma
SK-MEL-5 melanoma = system: SK-MEL-5 melanoma
SN12C renal = system: SN12C renal
SNB-19 CNS = system: SNB-19 CNS
SNB-75 CNS = system: SNB-75 CNS
SR leukemia = system: SR leukemia
SW-620 colon = system: SW-620 colon
T-47D breast = system: T-47D breast
TK-10 renal = system: TK-10 renal
U251 CNS = system: U251 CNS
UACC-257 melanoma = system: UACC-257 melanoma
UACC-62 melanoma = system: UACC-62 melanoma
UO-31 renal = system: UO-31 renal

SMILES: O=C(Nc1nc2ccc(S(=O)(=O)Nc3ccc(C4(C(F)(F)F)CC4)cc3)cc2[nH]1)c1cnccn1
- GI50 (786-0 renal): 2.77 µM
- TGI (786-0 renal): 12.6 µM
- GI50 (A498 renal): 2.26 µM
- TGI (A498 renal): 8.17 µM
- GI50 (A549 NSCLC): 2.88 µM
- TGI (A549 NSCLC): 21.5 µM
- GI50 (ACHN renal): 4.39 µM
- TGI (ACHN renal): 18.2 µM
- GI50 (BT-549 breast): 1.91 µM
- TGI (BT-549 breast): 16.1 µM
- GI50 (CAKI-1 renal): 4.19 µM
- TGI (CAKI-1 renal): 16.2 µM
- GI50 (COLO 205 colon): 2.84 µM
- TGI (COLO 205 colon): 17.5 µM
- GI50 (DU-145 prostate): 2.88 µM
- TGI (DU-145 prostate): 13.2 µM
- GI50 (EKVX NSCLC): 3.04 µM
- TGI (EKVX NSCLC): 15 µM
- GI50 (HCC-2998 colon): 3.61 µM
- TGI (HCC-2998 colon): 17.7 µM
- GI50 (HCT-116 colon): 1.66 µM
- TGI (HCT-116 colon): 15.9 µM
- GI50 (HCT-15 colon): 0.557 µM
- TGI (HCT-15 colon): 14.3 µM
- GI50 (HOP-62 NSCLC): 3.85 µM
- TGI (HOP-62 NSCLC): 23 µM
- GI50 (HOP-92 NSCLC): 1.04 µM
- TGI (HOP-92 NSCLC): 2.4 µM
- GI50 (HS 578T breast): 2.57 µM
- TGI (HS 578T breast): 13.5 µM
- GI50 (HT29 colon): 1.2 µM
- TGI (HT29 colon): 14.4 µM
- GI50 (IGROV1 ovarian): 1.9 µM
- TGI (IGROV1 ovarian): 18.5 µM
- GI50 (KM12 colon): 1.03 µM
- TGI (KM12 colon): 14.4 µM
- GI50 (LOX IMVI melanoma): 1.62 µM
- TGI (LOX IMVI melanoma): 20.1 µM
- GI50 (M14 melanoma): 1.12 µM
- TGI (M14 melanoma): 11.1 µM
- GI50 (MALME-3M melanoma): 1.66 µM
- TGI (MALME-3M melanoma): 15.5 µM
- GI50 (MCF7 breast): 0.551 µM
- TGI (MCF7 breast): 13.4 µM
- GI50 (MDA-MB-231 breast): 5.32 µM
- TGI (MDA-MB-231 breast): 19.4 µM
- GI50 (MDA-MB-435): 0.33 µM
- TGI (MDA-MB-435): 1.4 µM
- GI50 (NCI-H226 lung): 2.08 µM
- TGI (NCI-H226 lung): 9.51 µM
- GI50 (NCI-H23 lung): 2.2 µM
- TGI (NCI-H23 lung): 15.8 µM
- GI50 (NCI-H460 lung): 1.07 µM
- TGI (NCI-H460 lung): 12.2 µM
- GI50 (NCI-H522 lung): 1.07 µM
- TGI (NCI-H522 lung): 14.4 µM
- GI50 (NCI/ADR-RES ovarian): 1.73 µM
- TGI (NCI/ADR-RES ovarian): 11.8 µM
- GI50 (OVCAR-3 ovarian): 0.417 µM
- TGI (OVCAR-3 ovarian): 10.1 µM
- GI50 (OVCAR-4 ovarian): 4.61 µM
- TGI (OVCAR-4 ovarian): 19.7 µM
- GI50 (OVCAR-5 ovarian): 5.52 µM
- TGI (OVCAR-5 ovarian): 19.5 µM
- GI50 (OVCAR-8 ovarian): 5.51 µM
- TGI (OVCAR-8 ovarian): 31.8 µM
- GI50 (PC-3 prostate): 1.06 µM
- TGI (PC-3 prostate): 2.47 µM
- GI50 (RPMI-8226 leukemia): 1.16 µM
- TGI (RPMI-8226 leukemia): 5.39 µM
- GI50 (RXF 393 renal): 1.12 µM
- TGI (RXF 393 renal): 4.28 µM
- GI50 (SF-268 CNS): 4.21 µM
- TGI (SF-268 CNS): 20.6 µM
- GI50 (SF-295 CNS): 0.506 µM
- TGI (SF-295 CNS): 10.3 µM
- GI50 (SF-539 CNS): 2.35 µM
- TGI (SF-539 CNS): 10.4 µM
- GI50 (SK-MEL-2 melanoma): 3.03 µM
- TGI (SK-MEL-2 melanoma): 18.5 µM
- GI50 (SK-MEL-28 melanoma): 4.58 µM
- TGI (SK-MEL-28 melanoma): 19.2 µM
- GI50 (SK-MEL-5 melanoma): 0.693 µM
- TGI (SK-MEL-5 melanoma): 4.3 µM
- GI50 (SN12C renal): 4.46 µM
- TGI (SN12C renal): 17.6 µM
- GI50 (SNB-19 CNS): 4.24 µM
- TGI (SNB-19 CNS): 22 µM
- GI50 (SNB-75 CNS): 1.53 µM
- TGI (SNB-75 CNS): 6.45 µM
- GI50 (SR leukemia): 0.359 µM
- TGI (SR leukemia): 2.96 µM
- GI50 (SW-620 colon): 1.71 µM
- TGI (SW-620 colon): 15.3 µM
- GI50 (T-47D breast): 3.8 µM
- TGI (T-47D breast): 23.9 µM
- GI50 (TK-10 renal): 8.16 µM
- TGI (TK-10 renal): 22.5 µM
- GI50 (U251 CNS): 4.74 µM
- TGI (U251 CNS): 22.5 µM
- GI50 (UACC-257 melanoma): 10.6 µM
- TGI (UACC-257 melanoma): 23.8 µM
- GI50 (UACC-62 melanoma): 1.51 µM
- TGI (UACC-62 melanoma): 15.4 µM
- GI50 (UO-31 renal): 3.02 µM
- TGI (UO-31 renal): 13.9 µM
